Experimental data taken from patent EP0605261B1, “Use of a flavone derivative as taste modifier and a method of modifying taste” (SAN-EI GEN F.F.I., INC., priority 1992, dated 1994).

Columns and labels:
Assay type in all cases: in vivo
[1] = Sensory test: refreshness, its continuity and quality of taste (refreshing drink); settings: 0.2 g flavor composition H (0.000001(g) Compound 11) vs G, 8 panellers
Description: Compound 11 of the flavone derivative (I) was used as a taste modifier. Refreshing drink containing the above flavor composition G (control) or H (containing the flavone derivative (I)) was prepared.
First, 10 g of fructose/glucose sugar solution, 0.1 g of citric acid (crystal), 0.2 g of the flavor composition G and 88.5 g of water were mixed to dissolve, followed by heating up to 93 °C, immediately transmitted to a bottle and sealed. Then, it was cooled in water, thereby preparing flavone derivative (I) free refreshing drink.
Alternatively, flavone derivative (I)-containing refreshing drink was prepared by the same method using the flavor composition H instead of the flavor composition G.
Sensory tests for obtained refreshing drink were carried out by 8 panellers comprised of 6 males and 2 females at the age from 20 to 40.

[2] = Sensory test: body and deliciousness (casing boiled fish paste); settings: 0.0001 (g) Compound 11, 8 panellers
Description: Compound 11 of the flavone derivative (I) was used as a taste modifier. Ground fish meat, salt, starch, water and the flavone derivative (I) were mixed. In accordance with a general method, casing boiled fish paste containing the flavone derivative (I) was prepared. Alternatively, flavone derivative (I) free casing boiled fish paste was prepared by the same method as a control.
Sensory tests for obtained casing boiled fish paste were conducted by 8 panellers comprised of 6 males and 2 females at the age from 20 to 40.

[3] = Sensory test (limiting method): enhancing the sourness of acid sugar solution; design: key: (equivalent citric acid content / citric acid content with flavone) × 100; settings: citric acid 1.000 (g), flavone derivative (I) 0.00001 (g), 8 panellers; for Value of enhancing the sourness Ascending system: ascending system (from low concentration); for Value of enhancing the sourness Descending system: descending system (from high concentration)
Description: Compounds 1 to 11 of the flavone derivative (I) were used as a taste modifier to prepare acid sugar solution having compositions as follows:
As a control, 21 types of acid sugar solutions are used. In the control, the flavone derivative (I) is removed from the above composition and the content of citric acid is varied from 1.000 g to 1.500 g by 0.025 g.
Sensory tests were carried out by 8 trained panellers in accordance with a limiting method described in the Hand Book of Sensory evaluation, edited by Research Committee of sensory evaluation, Union of Japanese Scientists and Engineers, p.398 (1973) in use of acid sugar solutions containing respective flavone derivatives (I) and another acid sugar solutions having a various content of citric acid.
As for the content of citric acid, two types sensory tests were conducted, one was an ascending system (testing from solution with low concentration) and another was a descending system (testing from solution with high concentration).
The sensory evaluation was made by a value of enhancing the sourness. The value of enhancing the sourness was calculated by the following formula based on the content of citric acid in acid sugar solutions with varied concentration of citric acid, which has an equivalent stimulation with an acid sugar solution containing the flavone derivative (I) Value of enhancing the sourness = (content of citric acid in acid sugar solution sensed as an equivalent stimulation/content of citric acid in acid sugar solution containing the flavone derivative (I)) x 100 [formula]

[4] = Sensory test: sweetness and savor (ice cream); settings: 0.00001 w/w%, 10 panellers
Description: Compound 2 of the flavone derivative (I) was used as a taste modifier. Ice cream containing 5 w/w% of sugar, 12 w/w% of fructose condensed milk and 10 w/w% of thick malt syrup as sweetening agents was used as a control. The control and ice cream containing 0.00001 w/w% of the flavone derivative (I) were made by a general method. Sensory tests for the sweetness and the savor were conducted by 10 trained panellers comprised of 6 males and 4 females at the age from 20 to 40.

[5] = Five points evaluation test: saltiness and brackish taste modifying effect, salt / sodium L-glutamate solution; settings: average points of 5 panellers (2: no changes); for Saltiness Modifying Effect: Salt
Description: Compound 3 of the flavone derivative (I) was used as a taste modifier. […] Alternatively, sample solutions were prepared by adding 1, 0.1, 0.01 ppm of Compound 3 to the standard solutions, respectively.
Sensory tests were conducted by 5 trained panellers to examine saltiness modifying effect (so called saltiness adapting effect) and brackish taste modifying effect.
(§1) Each sample solution was evaluated assuming that the standard solution has the point of 2.

[6] = Sensory test: stimulative smell associated with acetic acid and viscosity (toothpaste with karaya gum); settings: 0.0000001 part by weight of Compound 3 to 1 part, 9 panellers
Description: Sorbitol was heated to 70°C, followed by adding sodium saccharine and silica slowly thereto and by stirring well. Then, water previously heated to 70°C, karaya gum, sodium lauryl sulfate and sodium hydroxide were added sequentially while stirring. Finally, flavor was added thereto to prepare toothpaste as a control. Alternatively, flavone derivative (I)-containing toothpaste was prepared by adding 0.0000001 part by weight of Compound 3 of the flavone derivative (I) to 1 part by weight of similarly prepared toothpaste.
Sensory tests for obtained toothpaste were conducted by 9 panellers comprised of 6 males and 3 females.

[7] = Sensory test: enhancing the sourness (refreshing drink); settings: 0.0002 (g) Compound 4, vs control, 8 panellers
Description: Compound 4 of the flavone derivative (I) was used as a taste modifier. Raw materials described below were mixed and stirred to dissolve. The solution was heated up to 93°C, immediately transmitted to a bottle and sealed. Then, it was cooled in water, thereby preparing refreshing drink having compositions as follows. A control was prepared by eliminating the compound 4 from the raw materials.
Sensory tests of obtained refreshing drink were carried out by 8 panellers.

[8] = Sensory test: sweetness and savor (sponge cake); settings: 22 w/w% white sugar, 0.0001 w/w%, 10 panellers
Description: Compound 4 of the flavone derivative (I) was used as a taste modifier and 22 w/w% of white sugar was used as a sweetening agent. In accordance with a general method, sponge cake containing 0.0001 w/w% of the flavone derivative (I) and flavone derivative (I) free sponge cake were prepared. Sensory tests for the sweetness and the savor were conducted by 10 panellers comprised of 6 males and 4 females at the age from 20 to 40.

[9] = Sensory test: savor (boiled fish paste); settings: 1.5 w/w% glycine, 0.0001 w/w%, 10 panellers
Description: Compound 7 of the flavone derivative (I) was used as a taste modifier. In accordance with a general method, boiled fish paste containing 0.0001 w/w% of the flavone derivative (I) and flavone derivative (I) free boiled fish paste were prepared in use of 1.5 w/w% glycine. Sensory tests for the savor were conducted by 10 panellers comprised of 6 males and 4 females at the age from 20 to 40.

[10] = Five points evaluation test: saltiness and savor modifying effect (toothpaste containing salt); settings: average points of 5 panellers (2: no changes)
Description: Compound 7 of the flavone derivative (I) was used as a taste modifier. To commercially available toothpaste (containing salt), the flavone derivative (I) was added in the amount of 1, 0.1 and 0.01 ppm respectively to prepare samples. Sensory tests were carried out for modifying effects of the saltiness and the savor of toothpaste. Flavone derivative (I) free toothpaste was used as a standard substance.
The sensory tests were conducted by 5 trained panellers to examine saltiness modifying effect (so called saltiness adapting effect) and savor modifying effect.
as §1

[11] = Sensory test: stimulative smell associated with acetic acid (mayonnaise); settings: 0.001 mg of Compound 8 added, 9 panellers
Description: Compound 8 of the flavone derivative (I) was used as a taste modifier. First, sugar, sodium glutamate and carrageenan were dissolved in water, followed by adding raw vinegar, salt and yolk. Then, corn salad oil was added portionwise while stirring, and emulsified by the use of colloid mill, thereby preparing mayonnaise as a control. Alternatively, flavone derivative (I)-containing mayonnaise was prepared by adding 0.001 mg of Compound 8 to mayonnaise that was similarly prepared.
Sensory tests for obtained mayonnaise were conducted by 9 panellers comprised of 6 males and 3 females.

3,3',4',5,5',6,7,8-octamethoxyflavone [Compound 11]
Continuity of refreshness: Those who sensed H additive is better [1]: 8 number of people
Continuity of refreshness: Those who sensed no difference [1]: 0 number of people
Quality of taste: Those who sensed H additive is better [1]: 6 number of people
Quality of taste: Those who sensed no difference [1]: 2 number of people
Refreshness: Those who sensed H additive is better [1]: 7 number of people
Refreshness: Those who sensed no difference [1]: 1 number of people
Body: Those who sensed no difference [2]: 2 number of people
Body: Those who sensed the flavone derivative (I) additive is better [2]: 6 number of people
Deliciousness: Those who sensed no difference [2]: 1 number of people
Deliciousness: Those who sensed the flavone derivative (I) additive is better [2]: 7 number of people
Quality of taste: Those who sensed no difference [2]: 1 number of people
Quality of taste: Those who sensed the flavone derivative (I) additive is better [2]: 7 number of people
Value of enhancing the sourness Ascending system [3]: 125
Value of enhancing the sourness Descending system [3]: 128

COc1ccc(-c2cc(=O)c3c(OC)c(OC)c(OC)c(OC)c3o2)cc1OC [Compound 2, 3',4',5,6,7,8-hexamethoxyflavone]
the sweetness and the savor, as sensed by all the panellers [4]: better than that of the control
Value of enhancing the sourness Ascending system [3]: 118
Value of enhancing the sourness Descending system [3]: 123

COc1ccc(-c2cc(=O)c3c(OC)c(OC)c(OC)c(OC)c3o2)cc1 [Compound 3, 4',5,6,7,8-pentamethoxyflavone]
Brackish Taste Modifying Effect ([5]; 0.01 ppm, Salt 1 %): 3.6
Brackish Taste Modifying Effect ([5]; 0.01 ppm, Salt 3 %): 3.6
Brackish Taste Modifying Effect ([5]; 0.01 ppm, Salt 5 %): 3.4
Brackish Taste Modifying Effect ([5]; 0.01 ppm, Salt 10 %): 3.0
Saltiness Modifying Effect ([5]; 0.01 ppm, sodium L-glutamate 1 %): 3.6
Saltiness Modifying Effect ([5]; 0.01 ppm, sodium L-glutamate 3 %): 3.8
Saltiness Modifying Effect ([5]; 0.01 ppm, sodium L-glutamate 5 %): 3.4
Saltiness Modifying Effect ([5]; 0.01 ppm, sodium L-glutamate 10 %): 3.0
Brackish Taste Modifying Effect ([5]; 0.10 ppm, Salt 1 %): 4.0
Brackish Taste Modifying Effect ([5]; 0.10 ppm, Salt 3 %): 3.8
Brackish Taste Modifying Effect ([5]; 0.10 ppm, Salt 5 %): 3.6
Brackish Taste Modifying Effect ([5]; 0.10 ppm, Salt 10 %): 3.4
Saltiness Modifying Effect ([5]; 0.10 ppm, sodium L-glutamate 1 %): 4.0
Saltiness Modifying Effect ([5]; 0.10 ppm, sodium L-glutamate 3 %): 3.8
Saltiness Modifying Effect ([5]; 0.10 ppm, sodium L-glutamate 5 %): 3.6
Saltiness Modifying Effect ([5]; 0.10 ppm, sodium L-glutamate 10 %): 3.4
Brackish Taste Modifying Effect ([5]; 1.00 ppm, Salt 1 %): 4.4
Brackish Taste Modifying Effect ([5]; 1.00 ppm, Salt 3 %): 4.0
Brackish Taste Modifying Effect ([5]; 1.00 ppm, Salt 5 %): 4.0
Brackish Taste Modifying Effect ([5]; 1.00 ppm, Salt 10 %): 3.8
Saltiness Modifying Effect ([5]; 1.00 ppm, sodium L-glutamate 1 %): 4.4
Saltiness Modifying Effect ([5]; 1.00 ppm, sodium L-glutamate 3 %): 4.0
Saltiness Modifying Effect ([5]; 1.00 ppm, sodium L-glutamate 5 %): 4.0
Saltiness Modifying Effect ([5]; 1.00 ppm, sodium L-glutamate 10 %): 3.8
Stimulative smell: Those who sensed no difference [6]: 1 number of people
Stimulative smell: Those who sensed the flavone derivative (I) additive is reduced [6]: 8 number of people
Value of enhancing the sourness Ascending system [3]: 120
Value of enhancing the sourness Descending system [3]: 123

COc1ccc(-c2cc(=O)c3c(OC)cc(OC)c(OC)c3o2)cc1OC [Compound 4, 3',4',5,7,8-pentamethoxyflavone]
quality of taste [7]: significantly improved
taste of fruit juice and the sourness [7]: stronger than the control
the sweetness and the savor, as sensed by all the panellers [8]: better than that of the control
Value of enhancing the sourness Ascending system [3]: 117
Value of enhancing the sourness Descending system [3]: 119

COc1ccc(-c2oc3c(OC)c(OC)cc(OC)c3c(=O)c2OC)cc1OC [Compound 7, 3,3',4',5,7,8-hexamethoxyflavone]
the savor, as sensed by all the panellers [9]: better than that of the control
Saltiness and Savor Modifying Effect: Saltiness ([10]; 0.01 ppm): 2.2
Saltiness and Savor Modifying Effect: Savor ([10]; 0.01 ppm): 2.2
Saltiness and Savor Modifying Effect: Saltiness ([10]; 0.10 ppm): 2.6
Saltiness and Savor Modifying Effect: Savor ([10]; 0.10 ppm): 2.4
Saltiness and Savor Modifying Effect: Saltiness ([10]; 1.00 ppm): 3.4
Saltiness and Savor Modifying Effect: Savor ([10]; 1.00 ppm): 3.0
Value of enhancing the sourness Ascending system [3]: 116
Value of enhancing the sourness Descending system [3]: 119

COc1ccc(-c2cc(=O)c3c(OC)cc(OC)cc3o2)cc1 [Compound 8, 4',5,7-trimethoxyflavone]
Stimulative smell: Those who sensed difference exists [11]: 7 number of people
Stimulative smell: Those who sensed no difference [11]: 2 number of people
Value of enhancing the sourness Ascending system [3]: 118
Value of enhancing the sourness Descending system [3]: 120
